In brackets after ≈: the same amount, converted by molar mass.
Key:
[1] = system: MRSA (USA300 isolate); assay: Hemolysis Assay I (exotoxin-mediated lysis of rabbit red blood cells by culture supernatant); format: cell-based, Staphylococcus aureus; conditions: 30/10/3.3/1.1/0.37 μM compound, values at OD600 of 0.75
[2] = system: Staphylococcus aureus MRSA strain (USA300 isolate); assay: Hemolysis Assay II (exotoxin-mediated lysis of rabbit red blood cells by culture filtrate); format: cell-based; conditions: Erythrocyte; for minimal effective concentration / IC95: 18 h; for minimal effective concentration: absorbance <2× the average of the complete inhibition control, read-out: Hemolysis assay II MEC (minimal effective concentration); for IC95: read-out: Hemolysis assay II IC95; for IC50: 18 h culture in CA-MHB, rabbit red blood cells
[3] = system: psmα; format: cell-based, Staphylococcus aureus
[4] = system: RNAIII; format: cell-based, Staphylococcus aureus; conditions: 10 μM compound, two hours, MRSA (USA300 isolate), normalized to rpoD
[5] = system: HepG2; conditions: human, 48 h
[6] = system: MRSA; assay: MIC by broth microdilution in CA-MHB (CLSI); conditions: Staphylococcus aureus, 18 h, read-out: MIC on MRSA
Description: Minimal inhibitory concentrations (MIC) were determined by broth microdilution method in cation-adjusted Mueller-Hinton (CA-MHB) broth according to the CLSI guideline. From an overnight culture plate, cells were resuspended in 0.9% (w/v) saline solution and bacterial inoculum was prepared in CA-MHB with 5×10^5 CFU/ml. Compounds were two-fold serially diluted in CA-MHB and 10 μL of this 10× concentrated samples were added into the 96-well plate. 90 μL of bacterial suspension was finally added to the compounds. Plates were covered and incubated without shaking at 35° C. for 18 hours. Every experiment contained an antibiotic as quality control. MIC was determined visually as the lowest concentration of a compound that prevents visible growth of the bacteria and the plates were scanned for documentation.

[7] = target: AgrAc (C-terminal domain of AgrA) (Staphylococcus aureus, UniProt P0A0I7); format: binding; conditions: 15N-AgrAc 100 μM, 1.6 mM compound
Chain of AgrAc (C-terminal domain of AgrA) (P0A0I7 143-238): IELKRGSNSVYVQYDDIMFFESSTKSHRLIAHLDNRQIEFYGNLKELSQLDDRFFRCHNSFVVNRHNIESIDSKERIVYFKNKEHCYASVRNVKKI
From the text: 2D ^1H,^15N HSQC spectra were acquired at 298 K on a Bruker Avance IIIHD 600 MHz NMR spectrometer, equipped with a cryogenic triple resonance probe (Bruker, Karlsruhe, Germany). The proton chemical shifts were referenced using the methyl signal of sodium 3-trimethylsillyl-[2,2,3,3-d4]-propionate at 0 ppm. Spectra were processed with the Bruker TopSpin software package 3.5 and analyzed with the Sparky software. Assignments of AgrAc were deduced from the Biological Magnetic Resonance Bank (BMRB) entry 18598. Chemical shifts are reported in parts per million (δ) downfield from the internal standard tetramethylsilane (TMS). […]
For each sample tested, 400 μL of 15N-AgrAc @ […] in [50 mM NaPi pH6.3; 100 mM NaCl 3 mM THP; 5% D20; + TMSP] were mixed with 13 μL of the stock solution of the compound (dissolved in DMSO-d6). […] The samples were analysed on the 600 MHz spectrometer with the sample changer. […]
To produce ^15N-labeled C-terminal domain of AgrA (AgrAc), Escherichia coli BL21(DE3) cells were grown in a M9-based semi-rich medium: M9 medium supplemented with [^15N]—NH4Cl (1.5 g/liter), unlabeled D-glucose (4 g/liter), Isogro-^15N Powder-Growth medium (1 g/liter, 10%; Sigma-Aldrich). […] Elution of AgrAc was performed with a sharp gradient of imidazole (0-400 mM) and the fractions were analyzed by SDS-PAGE (4-20%). […] Protein concentration was estimated based on its UV absorbance at 280 nm.

[8] = system: red blood cell (RBC); conditions: cited from earlier work
[9] = system: S. aureus; conditions: cited from earlier work
[10] = system: MRSA USA300 type strain; conditions: mice infected with a MRSA USA300 type strain, applied multiple times; cited from earlier work
[11] = system: S. aureus; conditions: cited from earlier work; remark: listed apart in the source
[12] = Staphylococcus aureus, Erythrocyte

Row | SMILES | IC50 [1, 12] | minimal effective concentration [2] | IC95 [2] | IC50 [2] | Downregulation of psmα expression at 10 μM [3] | Downregulation of RNAIII expression at 10 μM [4] | LD50 HepG2 [5] | MIC [6] | IC50 [1] | Chemical shift perturbations upon binding to AgrAc [7] | Exotoxin-induced red blood cell (RBC) lysis [8] | Resistance after multiple passages [9] | Abscess size and dermo necrosis [10] | Viability of S. aureus [11]
1 | Cc1ccc(S(=O)(=O)c2nnn3c2[nH]c(=O)c2ccc(Cl)cc23)c(C)c1 [Compound 3, 8-chloro-3-(2,4-dimethylphenyl)sulfonyl-4H-triazolo[1,5-a]quinazolin-5-one] | 5000 nM | 4 µg/mL | 3.45 µg/mL (≈ 8.87 µM) | 1.65 µg/mL (≈ 4.24 µM) | ++ (++ downregulation>100-fold (2 log10)) | ++ (++ downregulation>100-fold (2 log10)) | >=100 μM | ≥ 100 µM |  |  |  |  |  | 
2 | COc1ccc2c(=O)[nH]c3c(S(=O)(=O)c4ccc(C)cc4C)nnn3c2c1 [Compound 5, 3-(2,4-dimethylphenyl)sulfonyl-8-methoxy-4H-triazolo[1,5-a]quinazolin-5-one] | 6000 nM | 6 µg/mL | 11.7 µg/mL (≈ 30.3 µM) | 2.05 µg/mL (≈ 5.33 µM) | ++ (++ downregulation>100-fold (2 log10)) | + (+ downregulation>10-fold (1 log10)) | >=100 μM | ≥ 100 µM |  |  |  |  |  | 
3 | COc1ccc2c(=O)[nH]c3c(S(=O)(=O)c4ccc(C)cc4Cl)nnn3c2c1 [Compound 12, 3-(2-chloro-4-methyl-phenyl)sulfonyl-8-methoxy-4H-triazolo[1,5-a]quinazolin-5-one] | ~1000 nM | 3 µg/mL | 2.75 µg/mL (≈ 6.79 µM) | 0.85 µg/mL (≈ 2.1 µM) | ++ (++ downregulation>100-fold (2 log10)) | ++ (++ downregulation>100-fold (2 log10)) | >=100 μM | ≥ 100 µM | 1300 nM |  |  |  |  | 
4 | COc1ccc2c(=O)[nH]c3c(S(=O)(=O)c4ccc(C)cc4Br)nnn3c2c1 [Compound 18, 3-(2-bromo-4-methyl-phenyl)sulfonyl-8-methoxy-4H-triazolo[1,5-a]quinazolin-5-one] | ~1000 nM | 3 µg/mL | 2.75 µg/mL (≈ 6.12 µM) | 0.95 µg/mL (≈ 2.11 µM) | ++ (++ downregulation>100-fold (2 log10)) | ++ (++ downregulation>100-fold (2 log10)) | >=100 μM | ≥ 100 µM | 800 nM |  |  |  |  | 
5 | COc1ccc2c(=O)[nH]c3c(S(=O)(=O)c4ccc(C)cc4C(F)(F)F)nnn3c2c1 [Compound 26, 8-methoxy-3-[4-methyl-2-(trifluoromethyl)phenyl]sulfonyl-4H-triazolo[1,5-a]quinazolin-5-one] | ~1000 nM | 6 µg/mL | 4.15 µg/mL (≈ 9.47 µM) | 1 µg/mL (≈ 2.28 µM) | ++ (++ downregulation>100-fold (2 log10)) | ++ (++ downregulation>100-fold (2 log10)) | >=100 μM | ≥ 100 µM | 700 nM |  |  |  |  | 
6 | Cc1ccc(S(=O)(=O)c2nnn3c2[nH]c(=O)c2ccccc23)c(C)c1 [Compound 34, 3-(2,4-dimethylphenyl)sulfonyl-4H-triazolo[1,5-a]quinazolin-5-one] | 5000 nM | 4 µg/mL | 3.2 µg/mL (≈ 9.03 µM) | 0.9 µg/mL (≈ 2.54 µM) | ++ (++ downregulation>100-fold (2 log10)) | ++ (++ downregulation>100-fold (2 log10)) | >=100 μM | ≥ 100 µM |  | clearly show an interaction |  |  |  | 
7 | Cc1ccc(S(=O)(=O)c2nnn3c2[nH]c(=O)c2ccccc23)c(Cl)c1 [Compound 35, 3-(2-chloro-4-methyl-phenyl)sulfonyl-4H-triazolo[1,5-a]quinazolin-5-one] | 1500 nM | 4 µg/mL | 3.7 µg/mL (≈ 9.87 µM) | 1.25 µg/mL (≈ 3.34 µM) |  |  | >=100 μM | ≥ 100 µM |  |  |  |  |  | 
8 | Cc1ccc(S(=O)(=O)c2nnn3c2[nH]c(=O)c2ccc(O)cc23)c(C)c1 [Compound 36, 3-(2,4-dimethylphenyl)sulfonyl-8-hydroxy-4H-triazolo[1,5-a]quinazolin-5-one] | 2800 nM | 4 µg/mL | 4.5 µg/mL (≈ 12.1 µM) | 1.7 µg/mL (≈ 4.59 µM) |  |  | >=100 μM | ≥ 100 µM |  |  |  |  |  | 
9 | Cc1ccc(S(=O)(=O)c2nnn3c2[nH]c(=O)c2ccccc23)c(Br)c1 [Compound 37, 3-(2-Bromo-4-methyl-phenyl)sulfonyl-4H-triazolo[1,5-a]quinazolin-5-one] | 1500 nM | 4 µg/mL | 3.65 µg/mL (≈ 8.71 µM) | 1.25 µg/mL (≈ 2.98 µM) |  |  | >=100 μM | ≥ 100 µM |  |  |  |  |  | 
10 | COc1cccc2c1c(=O)[nH]c1c(S(=O)(=O)c3ccc(C)cc3C)nnn12 [Compound 39, 3-(2,4-dimethylphenyl)sulfonyl-6-methoxy-4H-triazolo[1,5-a]quinazolin-5-one] | 800 nM | 4 µg/mL | 3.25 µg/mL (≈ 8.45 µM) | 0.8 µg/mL (≈ 2.08 µM) |  |  | >=100 μM | ≥ 100 µM |  |  |  |  |  | 
11 | CC(C)c1ccc(S(=O)(=O)c2nnn3c2nc(O)c2ccccc23)cc1 [Savirin, reference compound] | 15000 nM | 8 µg/mL | 7.8 µg/mL (≈ 21.2 µM) | 2.6 µg/mL (≈ 7.06 µM) | + (key: 0=downregulation between 0 and 10-fold; + downregulation>10-fold (1 log10); ++ downregulation>100-fold (2 log10)) | 0 (0=downregulation between 0 and 10-fold) | >=100 μM | ≥ 100 µM |  |  | inhibited | No resistance was developed | significant reduction | without affecting viability

From patent US12509462B2, “3-(phenylsulfonyl)-[1,2,3]triazolo[1,5A]quinazolin-5(4H)-one derivatives” (BIOVERSYS AG, priority 2018, dated 2025)
